ChEMBL document CHEMBL1156950, “Synthesis and biological evaluation of 4-anilinoquinolines as potent inhibitors of epidermal growth factor receptor” (J Med Chem, 2010)

How the values were obtained:
[1] = target: Inhibitor of nuclear factor kappa-B kinase subunit beta (Homo sapiens) (UniProt O14920); experiment: Inhibition of IKK-beta at 10 uM assessed as residual activity by [33P]ATP radioactive filter binding assay relative to control
[2] = target: Mitogen-activated protein kinase 11 (Homo sapiens) (UniProt Q15759); experiment: Inhibition of p38beta at 10 uM assessed as residual activity by [33P]ATP radioactive filter binding assay relative to control
[3] = target: Insulin-like growth factor 1 receptor (Homo sapiens) (UniProt P08069); experiment: Inhibition of IGF-1R at 10 uM assessed as residual activity by [33P]ATP radioactive filter binding assay relative to control
[4] = target: Tyrosine-protein kinase CSK (Homo sapiens) (UniProt P41240); experiment: Inhibition of CSK at 10 uM assessed as residual activity by [33P]ATP radioactive filter binding assay relative to control
[5] = target: Calcium/calmodulin-dependent protein kinase kinase 2 (Homo sapiens) (UniProt Q96RR4); experiment: Inhibition of CAMKKbeta at 10 uM assessed as residual activity by [33P]ATP radioactive filter binding assay relative to control
[6] = target: Ribosomal protein S6 kinase alpha-3 (Homo sapiens) (UniProt P51812); experiment: Inhibition of RSK2 at 10 uM assessed as residual activity by [33P]ATP radioactive filter binding assay relative to control
[7] = target: SRSF protein kinase 1 (Homo sapiens) (UniProt Q96SB4); experiment: Inhibition of SRPK1 at 10 uM assessed as residual activity by [33P]ATP radioactive filter binding assay relative to control
[8] = target: Insulin receptor-related protein (Homo sapiens) (UniProt P14616); experiment: Inhibition of IRR at 10 uM assessed as residual activity by [33P]ATP radioactive filter binding assay relative to control
[9] = target: Serine/threonine-protein kinase PAK 4 (Homo sapiens) (UniProt O96013); experiment: Inhibition of PAK4 at 10 uM assessed as residual activity by [33P]ATP radioactive filter binding assay relative to control
[10] = target: Mitogen-activated protein kinase kinase kinase 9 (Homo sapiens) (UniProt P80192); experiment: Inhibition of MLK1 at 10 uM assessed as residual activity by [33P]ATP radioactive filter binding assay relative to control
[11] = target: Serine/threonine-protein kinase 3 (Homo sapiens) (UniProt Q13188); experiment: Inhibition of MST2 at 10 uM assessed as residual activity by [33P]ATP radioactive filter binding assay relative to control
[12] = target: Serine/threonine-protein kinase Sgk1 (Homo sapiens) (UniProt O00141); experiment: Inhibition of SGK1 at 10 uM assessed as residual activity by [33P]ATP radioactive filter binding assay relative to control
[13] = target: Mitogen-activated protein kinase kinase kinase 11 (Homo sapiens) (UniProt Q16584); experiment: Inhibition of MLK3 at 10 uM assessed as residual activity by [33P]ATP radioactive filter binding assay relative to control
[14] = target: Protein kinase C zeta type (Homo sapiens) (UniProt Q05513); experiment: Inhibition of PKCzeta at 10 uM assessed as residual activity by [33P]ATP radioactive filter binding assay relative to control
[15] = target: Glycogen synthase kinase-3 beta (Homo sapiens) (UniProt P49841); experiment: Inhibition of GSK3-beta at 10 uM assessed as residual activity by [33P]ATP radioactive filter binding assay relative to control
[16] = Inhibition of CK2 at 10 uM assessed as residual activity by [33P]ATP radioactive filter binding assay relative to control
[17] = target: Inhibitor of nuclear factor kappa-B kinase subunit epsilon (Homo sapiens) (UniProt Q14164); experiment: Inhibition of IKKepsilon at 10 uM assessed as residual activity by [33P]ATP radioactive filter binding assay relative to control
[18] = target: Mitogen-activated protein kinase 12 (Homo sapiens) (UniProt P53778); experiment: Inhibition of p38-gamma at 10 uM assessed as residual activity by [33P]ATP radioactive filter binding assay relative to control
[19] = target: RAC-alpha serine/threonine-protein kinase (Homo sapiens) (UniProt P31749); experiment: Inhibition of PKBalpha at 10 uM assessed as residual activity by [33P]ATP radioactive filter binding assay relative to control
[20] = target: Homeodomain-interacting protein kinase 1 (Homo sapiens) (UniProt Q86Z02); experiment: Inhibition of HIPK1 at 10 uM assessed as residual activity by [33P]ATP radioactive filter binding assay relative to control
[21] = target: Receptor tyrosine-protein kinase erbB-4 (Homo sapiens) (UniProt Q15303); experiment: Inhibition of HER4 at 10 uM assessed as residual activity by [33P]ATP radioactive filter binding assay relative to control
[22] = target: Ephrin type-B receptor 3 (Homo sapiens) (UniProt P54753); experiment: Inhibition of EPH-B3 at 10 uM assessed as residual activity by [33P]ATP radioactive filter binding assay relative to control
[23] = target: Misshapen-like kinase 1 (Homo sapiens) (UniProt Q8N4C8); experiment: Inhibition of MINK1 at 10 uM assessed as residual activity by [33P]ATP radioactive filter binding assay relative to control
[24] = target: Proto-oncogene tyrosine-protein kinase Src (Homo sapiens) (UniProt P12931); experiment: Inhibition of Src at 10 uM assessed as residual activity by [33P]ATP radioactive filter binding assay relative to control
[25] = target: Maternal embryonic leucine zipper kinase (Homo sapiens) (UniProt Q14680); experiment: Inhibition of MELK at 10 uM assessed as residual activity by [33P]ATP radioactive filter binding assay relative to control
[26] = target: Ephrin type-A receptor 2 (Homo sapiens) (UniProt P29317); experiment: Inhibition of EPHA2 at 10 uM assessed as residual activity by [33P]ATP radioactive filter binding assay relative to control
[27] = target: Dual specificity tyrosine-phosphorylation-regulated kinase 3 (Homo sapiens) (UniProt O43781); experiment: Inhibition of DYRK3 at 10 uM assessed as residual activity by [33P]ATP radioactive filter binding assay relative to control
[28] = target: Aurora kinase B (Homo sapiens) (UniProt Q96GD4); experiment: Inhibition of Aurora B at 10 uM assessed as residual activity by [33P]ATP radioactive filter binding assay relative to control
[29] = Inhibition of VEGFR at 10 uM assessed as residual activity by [33P]ATP radioactive filter binding assay relative to control
[30] = target: Tyrosine-protein kinase SYK (Homo sapiens) (UniProt P43405); experiment: Inhibition of SYK at 10 uM assessed as residual activity by [33P]ATP radioactive filter binding assay relative to control
cells [31] = conditions: Mus musculus, BaF3, 96 h
Description: Growth inhibition of mouse BA/F3 cells expressing EGFR Del1 mutant after 96 hrs by cell titer-glo assay

cells [32] = conditions: Mus musculus, BaF3, 96 h; remark: listed apart in the source
Description: Growth inhibition of mouse BA/F3 cells expressing EGFR Del3 mutant after 96 hrs by cell titer-glo assay

cells [33] = conditions: Mus musculus, BaF3, 96 h; remark: listed apart in the source
Description: Growth inhibition of mouse BA/F3 cells expressing EGFR Del5 and Thr790Met mutant after 96 hrs by cell titer-glo assay

cells [34] = conditions: Mus musculus, BaF3, 96 h; remark: listed apart in the source

Sequence of Receptor tyrosine-protein kinase erbB-4 (Homo sapiens) (Q15303 whole entry): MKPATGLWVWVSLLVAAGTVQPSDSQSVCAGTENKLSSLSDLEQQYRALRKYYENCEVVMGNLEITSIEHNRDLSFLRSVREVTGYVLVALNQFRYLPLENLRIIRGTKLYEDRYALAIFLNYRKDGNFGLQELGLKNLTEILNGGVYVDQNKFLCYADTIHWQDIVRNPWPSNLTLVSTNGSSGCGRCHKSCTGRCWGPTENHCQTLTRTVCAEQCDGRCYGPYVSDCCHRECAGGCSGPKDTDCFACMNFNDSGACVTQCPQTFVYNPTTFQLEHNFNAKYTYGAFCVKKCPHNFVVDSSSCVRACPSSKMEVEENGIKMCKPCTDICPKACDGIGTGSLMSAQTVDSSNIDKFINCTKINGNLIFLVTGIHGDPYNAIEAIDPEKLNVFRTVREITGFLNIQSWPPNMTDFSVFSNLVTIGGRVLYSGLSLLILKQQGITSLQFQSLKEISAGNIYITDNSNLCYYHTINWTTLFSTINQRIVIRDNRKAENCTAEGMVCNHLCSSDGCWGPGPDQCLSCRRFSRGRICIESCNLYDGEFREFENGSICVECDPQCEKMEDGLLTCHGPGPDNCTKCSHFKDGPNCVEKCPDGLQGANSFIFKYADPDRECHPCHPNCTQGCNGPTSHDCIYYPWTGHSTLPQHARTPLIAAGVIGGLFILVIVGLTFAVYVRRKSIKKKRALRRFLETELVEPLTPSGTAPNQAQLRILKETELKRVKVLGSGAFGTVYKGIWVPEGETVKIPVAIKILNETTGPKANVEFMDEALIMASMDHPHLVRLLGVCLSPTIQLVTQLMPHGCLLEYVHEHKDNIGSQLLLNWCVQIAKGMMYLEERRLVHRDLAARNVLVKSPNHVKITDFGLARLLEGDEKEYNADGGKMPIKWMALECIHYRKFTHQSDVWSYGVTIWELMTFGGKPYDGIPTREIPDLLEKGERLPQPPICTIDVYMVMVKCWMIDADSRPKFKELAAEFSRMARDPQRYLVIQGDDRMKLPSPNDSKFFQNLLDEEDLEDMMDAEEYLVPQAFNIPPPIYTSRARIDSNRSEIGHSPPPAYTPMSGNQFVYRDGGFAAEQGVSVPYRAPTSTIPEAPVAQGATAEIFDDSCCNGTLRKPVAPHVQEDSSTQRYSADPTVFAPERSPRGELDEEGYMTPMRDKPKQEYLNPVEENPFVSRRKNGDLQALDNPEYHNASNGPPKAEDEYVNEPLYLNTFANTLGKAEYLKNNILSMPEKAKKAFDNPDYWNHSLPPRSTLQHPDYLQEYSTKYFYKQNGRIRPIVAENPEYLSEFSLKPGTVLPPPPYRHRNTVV
Sequence of Mitogen-activated protein kinase kinase kinase 11 (Homo sapiens) (Q16584 whole entry, looked up): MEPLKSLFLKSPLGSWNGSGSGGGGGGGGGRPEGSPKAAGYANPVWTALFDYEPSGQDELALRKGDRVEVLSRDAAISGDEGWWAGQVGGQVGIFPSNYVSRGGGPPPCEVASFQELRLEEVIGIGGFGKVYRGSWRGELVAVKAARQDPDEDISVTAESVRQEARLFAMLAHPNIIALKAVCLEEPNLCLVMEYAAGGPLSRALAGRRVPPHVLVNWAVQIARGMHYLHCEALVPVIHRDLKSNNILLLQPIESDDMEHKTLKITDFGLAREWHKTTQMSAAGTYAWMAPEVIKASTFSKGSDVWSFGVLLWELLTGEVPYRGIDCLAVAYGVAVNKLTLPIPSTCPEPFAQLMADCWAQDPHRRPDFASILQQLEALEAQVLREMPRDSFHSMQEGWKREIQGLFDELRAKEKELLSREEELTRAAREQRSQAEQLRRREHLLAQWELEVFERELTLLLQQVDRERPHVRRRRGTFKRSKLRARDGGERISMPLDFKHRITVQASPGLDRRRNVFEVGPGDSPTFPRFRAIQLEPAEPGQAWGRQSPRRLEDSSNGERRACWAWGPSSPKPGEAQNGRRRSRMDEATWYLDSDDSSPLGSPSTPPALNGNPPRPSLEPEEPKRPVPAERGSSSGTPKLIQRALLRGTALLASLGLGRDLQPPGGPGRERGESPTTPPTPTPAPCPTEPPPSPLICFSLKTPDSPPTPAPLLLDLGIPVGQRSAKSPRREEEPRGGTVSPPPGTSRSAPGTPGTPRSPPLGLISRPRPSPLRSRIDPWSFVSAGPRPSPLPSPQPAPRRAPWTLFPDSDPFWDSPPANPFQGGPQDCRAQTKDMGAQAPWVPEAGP
Sequence of RAC-alpha serine/threonine-protein kinase (Homo sapiens) (P31749 whole entry): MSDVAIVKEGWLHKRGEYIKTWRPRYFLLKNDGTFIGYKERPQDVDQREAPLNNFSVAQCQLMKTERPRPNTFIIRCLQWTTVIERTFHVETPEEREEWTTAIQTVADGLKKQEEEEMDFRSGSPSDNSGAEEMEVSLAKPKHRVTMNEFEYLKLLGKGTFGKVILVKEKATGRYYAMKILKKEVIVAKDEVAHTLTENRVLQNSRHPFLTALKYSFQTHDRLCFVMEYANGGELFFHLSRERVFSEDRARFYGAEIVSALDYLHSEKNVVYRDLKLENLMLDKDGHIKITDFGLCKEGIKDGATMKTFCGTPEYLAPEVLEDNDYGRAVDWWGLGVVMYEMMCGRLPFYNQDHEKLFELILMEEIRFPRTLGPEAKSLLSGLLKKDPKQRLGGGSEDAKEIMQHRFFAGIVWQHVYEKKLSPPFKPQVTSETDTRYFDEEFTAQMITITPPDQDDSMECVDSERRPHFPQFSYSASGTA
Sequence of Homeodomain-interacting protein kinase 1 (Homo sapiens) (Q86Z02 whole entry, looked up): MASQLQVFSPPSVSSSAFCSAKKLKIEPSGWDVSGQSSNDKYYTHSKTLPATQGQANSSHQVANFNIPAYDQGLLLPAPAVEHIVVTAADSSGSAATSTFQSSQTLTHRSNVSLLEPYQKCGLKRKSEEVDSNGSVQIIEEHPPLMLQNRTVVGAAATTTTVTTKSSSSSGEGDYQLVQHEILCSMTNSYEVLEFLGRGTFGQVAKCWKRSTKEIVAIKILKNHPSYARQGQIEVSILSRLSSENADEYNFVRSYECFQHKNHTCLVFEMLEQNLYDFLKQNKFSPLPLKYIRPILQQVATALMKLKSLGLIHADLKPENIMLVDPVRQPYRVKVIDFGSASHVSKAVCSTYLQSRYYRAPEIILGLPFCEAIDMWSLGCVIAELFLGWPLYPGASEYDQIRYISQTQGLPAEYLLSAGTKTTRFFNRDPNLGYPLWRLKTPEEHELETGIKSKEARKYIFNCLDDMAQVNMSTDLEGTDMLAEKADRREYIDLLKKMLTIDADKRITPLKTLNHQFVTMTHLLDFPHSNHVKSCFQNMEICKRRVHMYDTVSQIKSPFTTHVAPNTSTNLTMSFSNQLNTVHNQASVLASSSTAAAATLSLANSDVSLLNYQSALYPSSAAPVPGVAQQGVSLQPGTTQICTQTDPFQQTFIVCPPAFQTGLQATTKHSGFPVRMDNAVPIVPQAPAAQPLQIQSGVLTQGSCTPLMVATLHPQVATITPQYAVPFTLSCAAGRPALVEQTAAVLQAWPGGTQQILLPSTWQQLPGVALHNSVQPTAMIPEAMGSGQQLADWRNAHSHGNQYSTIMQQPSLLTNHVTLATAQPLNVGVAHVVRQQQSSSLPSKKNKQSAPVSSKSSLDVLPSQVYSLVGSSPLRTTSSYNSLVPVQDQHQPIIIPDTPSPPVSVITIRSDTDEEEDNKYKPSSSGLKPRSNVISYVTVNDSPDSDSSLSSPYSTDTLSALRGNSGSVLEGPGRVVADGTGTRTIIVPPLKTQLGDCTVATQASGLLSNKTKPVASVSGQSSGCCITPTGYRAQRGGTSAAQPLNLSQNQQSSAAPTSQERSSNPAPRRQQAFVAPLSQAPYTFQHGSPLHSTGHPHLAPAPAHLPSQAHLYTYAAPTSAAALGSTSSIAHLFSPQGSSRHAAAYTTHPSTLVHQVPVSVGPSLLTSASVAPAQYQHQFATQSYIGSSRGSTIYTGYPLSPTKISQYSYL
Sequence of Calcium/calmodulin-dependent protein kinase kinase 2 (Homo sapiens) (Q96RR4 2-588 limits assumed): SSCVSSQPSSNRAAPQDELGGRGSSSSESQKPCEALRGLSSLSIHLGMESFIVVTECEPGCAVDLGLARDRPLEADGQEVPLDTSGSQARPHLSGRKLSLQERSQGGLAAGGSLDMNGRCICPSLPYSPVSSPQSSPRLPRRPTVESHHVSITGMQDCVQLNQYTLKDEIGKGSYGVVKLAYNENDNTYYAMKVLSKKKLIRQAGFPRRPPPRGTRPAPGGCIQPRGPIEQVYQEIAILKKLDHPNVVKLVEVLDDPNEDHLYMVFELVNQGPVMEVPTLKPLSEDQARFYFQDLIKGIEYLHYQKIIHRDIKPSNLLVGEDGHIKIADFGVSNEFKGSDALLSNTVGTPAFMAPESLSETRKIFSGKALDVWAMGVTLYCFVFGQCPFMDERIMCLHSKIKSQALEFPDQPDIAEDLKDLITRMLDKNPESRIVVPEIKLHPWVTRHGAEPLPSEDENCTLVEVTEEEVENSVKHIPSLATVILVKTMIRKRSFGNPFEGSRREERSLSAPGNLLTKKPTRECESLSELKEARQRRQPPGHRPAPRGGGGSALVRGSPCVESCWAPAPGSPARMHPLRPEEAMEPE
Sequence of Dual specificity tyrosine-phosphorylation-regulated kinase 3 (Homo sapiens) (O43781 whole entry): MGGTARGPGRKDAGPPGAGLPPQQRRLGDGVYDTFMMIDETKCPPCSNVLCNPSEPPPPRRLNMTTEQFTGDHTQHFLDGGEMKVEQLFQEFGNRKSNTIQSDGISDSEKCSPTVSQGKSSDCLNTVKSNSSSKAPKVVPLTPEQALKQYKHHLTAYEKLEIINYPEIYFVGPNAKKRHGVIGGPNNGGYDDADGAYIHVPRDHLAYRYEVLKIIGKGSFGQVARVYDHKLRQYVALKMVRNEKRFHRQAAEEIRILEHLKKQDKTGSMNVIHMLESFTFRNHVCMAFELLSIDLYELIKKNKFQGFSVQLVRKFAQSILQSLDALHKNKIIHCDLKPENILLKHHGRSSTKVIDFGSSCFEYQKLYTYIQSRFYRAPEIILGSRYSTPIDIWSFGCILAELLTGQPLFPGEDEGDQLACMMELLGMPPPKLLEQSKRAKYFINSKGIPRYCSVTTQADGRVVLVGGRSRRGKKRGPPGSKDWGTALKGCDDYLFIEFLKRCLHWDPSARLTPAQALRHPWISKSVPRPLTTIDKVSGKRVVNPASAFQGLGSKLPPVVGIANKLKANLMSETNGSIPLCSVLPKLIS

`CN(C)CCCC(=O)Nc1ccc2ncnc(Nc3cccc(Br)c3)c2c1` showed an Activity [1] of 90%, an Activity [2] of 81% and an Activity [3] of 105%. For the same compound, the Activity [4] was 63%, the Activity [5] was 66% and the Activity [6] was 78%. The Activity [7] was 87%, the Activity [8] was 70% and the Activity [9] was 83%. It also gave an Activity [10] of 87%, an Activity [11] of 90% and an Activity [12] of 72%. For the same compound, the Activity [13] was 65%, the Activity [14] was 86% and the Activity [15] was 96%. The Activity [16] was 96%, the Activity [17] was 89% and the Activity [18] was 85%. It also gave an Activity [19] of 103%, an Activity [20] of 126% and an Activity [21] of -12%. The Activity [22] was 17%, the Activity [23] was 35% and the Activity [24] was 44%. The Activity [25] was 49%, the Activity [26] was 53% and the Activity [27] was 27%. For the same compound, the Activity [28] was 21%, the Activity [29] was 50% and the Activity [30] was 67%. It also gave a GI50 (cells [31]) of less than 500 nM, a GI50 (cells [32]) of less than 500 nM and a GI50 (cells [33]) greater than 5000 nM. For the same compound, the GI50 (cells [34]) was greater than 5000 nM.

Work on `CN(C)CCCC(=O)Nc1ccc2nccc(Nc3cccc(Br)c3)c2c1` yielded an Activity [1] of 62%, an Activity [2] of 63% and an Activity [3] of 71%. It also gave an Activity [4] of 73%, an Activity [5] of 74% and an Activity [6] of 74%. It also gave an Activity [7] of 75%, an Activity [8] of 79% and an Activity [9] of 79%. The Activity [10] was 79%, the Activity [11] was 80% and the Activity [12] was 82%. The Activity [13] was 84%, the Activity [14] was 86% and the Activity [15] was 89%. The Activity [16] was 90%, the Activity [17] was 92% and the Activity [18] was 94%. The Activity [19] was 100%, the Activity [20] was 103% and the Activity [21] was -10%. For the same compound, the Activity [22] was 5%, the Activity [23] was 12% and the Activity [24] was 13%. It also gave an Activity [25] of 25%, an Activity [26] of 26% and an Activity [27] of 32%. For the same compound, the Activity [28] was 33%, the Activity [29] was 36% and the Activity [30] was 57%. For the same compound, the GI50 (cells [31]) was less than 500 nM, the GI50 (cells [32]) was less than 500 nM and the GI50 (cells [33]) was greater than 500 nM. It also gave a GI50 (cells [34]) greater than 500 nM.
